The structures appear in SMILES notation.

Tested on in the first data set: not given
Assay: not given
Settings: not given
In the case of `COC(=O)C1=CC(C(=O)c2cc(Cl)ccc2O)=CN2CCc3c([nH]c4ccccc34)C12C(=O)OC` (centres unmarked), the melting point (in general, the temperature of the solid-liquid transition) was 232 °C (dec.).
Take `CC(C)(C)OC(=O)C1=CC(C(=O)c2ccccc2O)=CN2CCc3c([nH]c4ccccc34)C12C(=O)OC(C)(C)C` (centres unmarked) [Compound 1-54, di-tert-butyl 3-(2-hydroxybenzoyl)-6,7,12,12b-tetrahydroindolo[2,3-a]quinolizine-1,12b-dicarboxylate]: the melting point was 237 °C (dec.).
In the case of `COC(=O)C1=CC(C(=O)c2ccccc2O)=CN2CCc3c([nH]c4ccc(C)cc34)C12C(=O)OC` (centres unmarked), the melting point was determined as 175 °C.
With `CCOC(=O)C1=CC(C(=O)c2cc(Br)ccc2O)=CN2CCc3c([nH]c4ccc(OC)cc34)C12C(=O)OCC` (centres unmarked) [Compound 1-22, Diethyl-3-(5-bromo-2-hydroxybenzoyl)-9-methoxy-6,7,12,12b-tetrahydroindolo[2,3-a]quinolizine-1,12b-dicarboxylate], the melting point was 225 °C.
Still for that read-out and setting: the figure for `COC(=O)C1=CC(C(=O)c2ccccc2O)=CN2[C@H](C(=O)OC)Cc3c([nH]c4ccccc34)C12C(=O)OC` (stereo partly drawn) [Compound 1-28, (6S)-trimethyl 3-(2-hydroxybenzoyl)-6,7,12,12b-tetrahydroindolo[2,3-a]quinolizine-1,6,12b-tricarboxylate] is 244 °C (dec.); for `COC(=O)C1=CC(C(=O)c2cc(Br)ccc2O)=CN2CCc3c([nH]c4ccc(OC)cc34)C12C(=O)OC` (centres unmarked) [Compound 1-05, Dimethyl-3-(5-bromo-2-hydroxybenzoyl)-9-methoxy-6,7,12,12b-tetrahydro-indolo[2,3-a]quinolizine-1,12b-dicarboxylate] it is 197 °C (dec.).
`COC(=O)C1=CC(C(=O)c2ccccc2O)=CN2CCc3c([nH]c4ccc(OC)cc34)C12C(=O)OC` (centres unmarked): the melting point is 163 °C (dec.).
Still for that read-out and setting: the figure for `CCOC(=O)C1=CC(C(=O)c2cc(Cl)ccc2O)=CN2CCc3c([nH]c4ccc(OC)cc34)C12C(=O)OCC` (centres unmarked) [Compound 1-20, Diethyl-3-(5-chloro-2-hydroxybenzoyl)-9-methoxy-6,7,12,12b-tetrahydroindolo[2,3-a]quinolizine-1,12b-dicarboxylate] is 230 °C.
On the same count and under the same terms, the figure for `COC(=O)C1=CC(C(=O)c2ccccc2O)=CN2CCc3c([nH]c4ccccc34)C12C(=O)OC` (centres unmarked) is 258 °C (dec.); for `COC(=O)C1=CC(C(=O)c2c(O)cccc2OC)=CN2CCc3c([nH]c4ccccc34)C12C(=O)OC` (centres unmarked) it is 237 °C (dec.).
The compound `CCOC(=O)C1=CC(C(=O)c2cc(C)ccc2O)=CN2CCc3c([nH]c4ccc(OC)cc34)C12C(=O)OCC` (centres unmarked) [Compound 1-16, Diethyl-3-(2-hydroxy-5-methylbenzoyl)-9-methoxy-6,7,12,12b-tetrahydroindolo[2,3-a]quinolizine-1,12b-dicarboxylate] had a melting point of 228 °C.
On the same count and under the same terms, the figure for `CCOC(=O)C1=CC(C(=O)c2cc(Cl)c(C)cc2O)=CN2CCc3c([nH]c4ccccc34)C12C(=O)OCC` (centres unmarked) [Compound 1-18, Diethyl-3-(5-chloro-2-hydroxy-4-methylbenzoyl)-6,7,12,12b-tetrahydroindolo[2,3-a]quinolizine-1,12b-dicarboxylate] is 196 °C; for `CCOC(=O)C1=CC(C(=O)c2cc(C)ccc2O)=CN2CCc3c([nH]c4ccccc34)C12C(=O)OCC` (centres unmarked) [Compound 1-03, Diethyl-3-(2-hydroxy-5-methylbenzoyl)-6,7,12,12b-tetrahydroindolo-[2,3-a]quinolizine-1,12b-dicarboxylate] it is 208 °C; for `COC(=O)C1=CC(C(=O)c2ccccc2O)=CN2CCc3c([nH]c4ccc(Br)cc34)C12C(=O)OC` (centres unmarked) it is 182 °C.
`CCOC(=O)C1=CC(C(=O)c2cc(Cl)ccc2O)=CN2CCc3c([nH]c4ccccc34)C12C(=O)OCC` (centres unmarked) [Compound 1-19, Diethyl-3-(5-chloro-2-hydroxybenzoyl)-6,7,12,12b-tetrahydro-indolo[2,3-a]quinolizine-1,12b-dicarboxylate]: the melting point is 216 °C.
`COC(=O)C1=CC(C(=O)c2cc(C)ccc2O)=CN2CCc3c([nH]c4ccccc34)C12C(=O)OC` (centres unmarked) showed a melting point of 197 °C.
The same measure, in the same setting: the figure for `COC(=O)C1=CC(C(=O)c2cc(Br)cc(Br)c2O)=CN2CCc3c([nH]c4ccccc34)C12C(=O)OC` (centres unmarked) is 131 °C; for `COC(=O)C1=CC(C(=O)c2cc(Cl)cc(Cl)c2O)=CN2CCc3c([nH]c4ccccc34)C12C(=O)OC` (centres unmarked) it is 238.2 °C (dec.); for `COC(=O)C1=CC(C(=O)c2ccc(OCc3ccccc3)c(C)c2O)=CN2CCc3c([nH]c4ccccc34)C12C(=O)OC` (centres unmarked) [Compound 1-23, Dimethyl 3-(4-(benzyloxy)-2-hydroxy-3-methylbenzoyl)-6,7,12,12b-tetrahydroindolo[2,3-a]quinolizine-1,12b-dicarboxylate] it is 216 °C.
On the same count and under the same terms, the figure for `CCOC(=O)C1=CC(C(=O)c2ccccc2O)=CN2CCc3c([nH]c4ccccc34)C12C(=O)OCC` (centres unmarked) is 209 °C.
The same measure, in the same setting: the figure for `COC(=O)C1=CC(C(=O)c2ccccc2OC)=CN2CCc3c([nH]c4ccccc34)C12C(=O)OC` (centres unmarked) is 261 °C (dec.); for `CCOC(=O)C1=CC(C(=O)c2cc(Br)ccc2O)=CN2CCc3c([nH]c4ccccc34)C12C(=O)OCC` (centres unmarked) [Compound 1-14, Diethyl-3-(5-bromo-2-hydroxybenzoyl)-6,7,12,12b-tetrahydro-indolo[2,3-a]quinolizine-1,12b-dicarboxylate] it is 215 °C.
`CCOC(=O)C1=CC(C(=O)c2ccccc2O)=CN2CCc3c([nH]c4ccc(OC)cc34)C12C(=O)OCC` (centres unmarked) [Compound 1-13, Diethyl-3-(2-hydroxybenzoyl)-9-methoxy-6,7,12,12b-tetrahydro-indolo[2,3-a]quinolizine-1,12b-dicarboxylate] yielded a melting point of 212 °C.
On the same count and under the same terms, the figure for `COC(=O)C1=CC(C(=O)c2ccccc2O)=CN2CCc3c([nH]c4ccc(O)cc34)C12C(=O)OC` (centres unmarked) is 180 °C (dec.).
In the case of `COC(=O)C1=CC(C(=O)c2cc(Br)ccc2O)=CN2CCc3c([nH]c4ccccc34)C12C(=O)OC` (centres unmarked), the melting point is 220 °C (dec.).

Another data set relates to HeLa cells. Briefly: FACS analysis of the cell cycle (propidium iodide DNA content). In kind it is cell-based, human. To be noted: 1 μM nocodazole, 24 h after treatment. As to the method: HeLa human cervical carcinoma cell line, the human breast cancer cell line MCF7, and the human colorectal carcinoma cell line SW480 were maintained in Dulbecco's Modified Eagle's medium (DMEM, PAA, Pasching Austria). The colorectal cell line HT29 was cultured in McCoy's 5A medium (PAA, Pasching, Austria). DMEM medium was supplemented with 10% fetal calf serum, sodium pyruvate, non-essential amino acids, penicillin and streptomycin, McCoy's 5A medium was supplemented with 10% fetal calf serum, penicillin and streptomycin. All cell lines were cultured at 37° C. in a 5% CO2 humidified atmosphere. Further, fluorescent activated cell sorting (FACS) was used successfully to analyze the cell cycle and mitotic arrest under the influence of indoloquinolizines. HeLa cells were fixed and stained for FACS analysis 24 h after compound treatment. Cells were trypsinized and combined with any floating cells, pelleted, and resuspended in 1 ml PBS. Ice cold ethanol (70%) was added, and samples were incubated at −20° C. until analysis. After fixation the cells were pelleted, resuspended in 500 μl staining solution (50 μg/ml propidium iodide, 0.1 mg/ml RNase A, 0.05% Triton X-100) and incubated for 40 min at 37° C. 3 ml PBS were added; the cells were pelleted again and resuspended in 500 μl PBS. The DNA content was measured with a Becton Dickinson LSRII and analyzed with FlowJo 7.5 software. The cell cycle of compound treated HeLa cells was analyzed by fluorescence activated cell sorting (FIG. 1). […] A similar distribution is given in (−)-1-01 treated cells (FIGS. 1c and 1d); here 9% are in G1 and 38% in G2/M phase (25 μM) respectively; 8% in G1 and 40% in G2/M phase (50 μM). This means that the mitotic index is increased by more than two fold (from 0.16 to 0.38 respectively 0.40), indicating a mitotic arrest after compound treatment.
(In general: In flow cytometry, cells or beads pass a laser one at a time.)
Regarding `COC(=O)Nc1nc2ccc(C(=O)c3cccs3)cc2[nH]1` [nocodazole, reference compound], the “cells in G1 phase” value was 4% and the “cells in G2/M phase” value is recorded as 40%.

For a further data set, the system named is all cell lines but Saos2. Briefly: Apo-ONE homogeneous caspase-3/7 assay (apoptosis), summary statement. To be noted: all cell lines but Saos2, 42 h. In kind it is cell-based. As to the method:
HeLa human cervical carcinoma cell line, the human breast cancer cell line MCF7, the African green monkey kidney cell line BS-C-1 and the human colorectal carcinoma cell lines HCT116 and SW480 were maintained in Dulbecco's Modified Eagle's medium (DMEM, PAA, Pasching Austria). The colorectal cell line HT29 was cultured in McCoy's 5A medium (PAA, Pasching, Austria). The prostate carcinoma cells PC3 and the osteosarcoma cells Saos2 were cultured in RPMI medium (PAA, Pasching Austria). All media were supplemented with 10% fetal calf serum, L-glutamine, penicillin and streptomycin. All cell lines were maintained at 37° C. in a 5% CO2 humidified atmosphere.
Therefore we measured the caspase-3/7 activity in different cell lines with the Apo-ONE® homogeneous caspase-3/7 assay.
Caspase-3/7 activities were determined using the Apo-ONE® homogeneous caspase-3/7 assay (Promega, Mannheim Germany) according to the manufacturer's protocol. Briefly, cells were plated in quadruplicates in 384-well cell culture plate. After 24 hours cells were exposed for 42 hours to the compounds at different concentrations. Control cells were treated with 0.5% DMSO or staurosporine (STS). Subsequently cells were lysed with a lysis buffer containing the caspase-3/7 substrate Z-DEVD-R110 and were incubated at room temperature until further analysis. The fluorescence was detected with the TECAN Inifinite® M200 plate reader at excitation/emission wavelength 485/520 nm. The blank value was subtracted from each value and the relative caspase-3/7 activity was calculated compared to the DMSO treated cells.
These findings correlate with our results from the cell viability assays for these indoloquinolizine.
Consider `COC(=O)C1=CC(C(=O)c2ccccc2O)=CN2CCc3c([nH]c4ccc(OC)cc34)C12C(=O)OC` (single isomer, unassigned; (+)) [(+)-1-04, Dimethyl-3-(2-hydroxybenzoyl)-9-methoxy-6,7,12,12b-tetrahydro-indolo[2,3-a]quinolizine-1,12b-dicarboxylate], for which the “impact on the apoptosis” value is listed as “did not have any impact on the apoptosis”.
For `COC(=O)C1=CC(C(=O)c2ccccc2O)=CN2CCc3c([nH]c4ccccc34)C12C(=O)OC` (single isomer, unassigned; (+)) [(+)-1-01, Dimethyl-3-(2-hydroxybenzoyl)-6,7,12,12b-tetrahydroindolo[2,3a]quinolizine-1,12b-dicarboxylate], the “impact on the apoptosis” value is on record as “did not have any impact on the apoptosis”.

For the origin of these results see patent publication US20120316192A1, “SUBSTITUTED INDOLO [2,3-A] QUINOLIZINES” (priority 2011, published 2012).
